Laboratory results from patent US20180243290A1, “MORPHINAN COMPOUNDS FOR TREATING AGITATION” (Concert Pharmaceuticals, Inc., priority 2015, published 2018).

Experiments:
[1] = healthy human males; cited from earlier work
[2] = Metabolic stability in extensive metabolizer human liver microsomes with and without quinidine; type: in vitro ADME; conditions: for CLint scaled at 100 ng/mL / half-life at 100 ng/mL: human; for CLint scaled at 100 ng/mL / Clint, app Ratio (respective to 0 concentration of Quinidine) / t1/2 Ratio (respective to 0 concentration of Quinidine) / % Δ (D6-Dimemorfan/Dimemorfan) of t1/2 / Clint, app Ratio (D6-Dimemorfan/Dimemorfan): EM HLM; for half-life at 100 ng/mL: EM HLM 1.0 mg/mL, 100 ng/mL test compound, 60 min
Protocol: Individual donor with extensive metabolizer human liver microsomes (EM HLM) (20 mg/mL) with CYP2D6 activity of 957±19 pmol/mg protein/min, genotyped for CYP2D6 allelic variant-CYP2D6*1/*2x2, were obtained from Xenotech, LLC (Lenexa, Kans.). β-nicotinamide adenine dinucleotide phosphate, reduced form (NADPH), magnesium chloride (MgCl2), dimethyl sulfoxide (DMSO), acetonitrile (ACN), quinidine, and dextromethorphan (DM) were purchased from Sigma-Aldrich. Dimemorfan and d6-dimemorfan (Compound 100) were synthesized by Adesis, Inc.
1.0 mg/mL stock solutions of test compounds dextromethorphan (DM), dimemorfan, and d6-dimemorfan (Compound 100) were prepared in DMSO. The 1.0 mg/mL stock solutions were diluted to 10,000 ng/mL in acetonitrile (ACN). A 10 mM stock solution of quinidine was prepared in acetonitrile, which was then diluted further in acetonitrile to produce 20 μM, 10 μM, 5 μM, 2.5 μM, and 1.25 μM solutions of quinidine. The human liver microsomes were diluted to 1.25 mg/mL in 0.1 M potassium phosphate buffer, pH 7.4, containing 3 mM MgCl2. The diluted microsomes were added to wells of a 96-well deep-well polypropylene plate in triplicate. A 5 μL aliquot of each 10,000 ng/mL test compound was added to the microsomes, and the mixture was pre-warmed at 37° C. for 7 minutes, then a 5 μL aliquot of each quinidine solution was added (except in control wells where no quinidine was added). Reactions were initiated by addition of pre-warmed NADPH solution to the mixture. The final reaction volume was 0.5 mL and contained 1.0 mg/mL human liver microsomes, 100 ng/mL of test compound, 0.2, 0.1, 0.05, 0.025, 0.0125, or 0 μM of quinidine, and 2 mM NADPH in 0.1 M potassium phosphate buffer, pH 7.4, and 3 mM MgCl2. The reaction mixtures were incubated at 37° C., and 50 μL aliquots were removed at 0, 15, 30, and 60 minutes and added to shallow-well 96-well plates which contained 50 μL of ice-cold ACN with internal standard to stop the reactions. The plates were stored at 4° C. for 20 minutes after which 100 μL of water was added to the wells of the plate before centrifugation to pellet precipitated proteins. Supernatants were transferred to another 96-well plate and analyzed for amounts of parent remaining by LC-MS/MS using an Applied Bio-systems mass spectrometer. Amount of parent remaining was quantified via standard curve.
The in vitro till's for test compounds were calculated from the slopes of the linear regression of % parent remaining (1n) vs. incubation time relationship.
k=−[slope of linear regression of % parent remaining(ln) vs incubation time]
The apparent intrinsic clearance was calculated using the following equation:
CLint (mL/min/kg)=(0.693/in vitro t1/2) (Incubation Volume/mg of microsomes) • (45 mg microsomes/gram of liver) (20 gm of liver/kg b.w.)
Data analysis was performed using Microsoft Excel Software.

[3] = pH 7.4, with none (quinidine 0 µM, control), quinidine 0 μM
[4] = pH 7.4, with quinidine 0.0125 µM, quinidine 0.0125 μM
[5] = pH 7.4, with quinidine 0.025 µM, quinidine 0.025 μM
[6] = pH 7.4, with quinidine 0.05 µM, quinidine 0.05 μM
[7] = pH 7.4, with quinidine 0.1 µM, quinidine 0.1 μM
[8] = pH 7.4, with quinidine 0.2 µM, quinidine 0.2 μM

Row | SMILES | CLint scaled at 100 ng/mL [2, 3] | half-life at 100 ng/mL [2, 3] | CLint scaled at 100 ng/mL [2, 4] | half-life at 100 ng/mL [2, 4] | CLint scaled at 100 ng/mL [2, 5] | half-life at 100 ng/mL [2, 5] | CLint scaled at 100 ng/mL [2, 6] | half-life at 100 ng/mL [2, 6] | CLint scaled at 100 ng/mL [2, 7] | half-life at 100 ng/mL [2, 7] | CLint scaled at 100 ng/mL [2, 8] | half-life at 100 ng/mL [2, 8] | Clint, app Ratio (respective to 0 concentration of Quinidine) ([2]; quinidine 0 μM) | t1/2 Ratio (respective to 0 concentration of Quinidine) ([2]; quinidine 0 μM) | Clint, app Ratio (respective to 0 concentration of Quinidine) ([2]; quinidine 0.0125 μM) | t1/2 Ratio (respective to 0 concentration of Quinidine) ([2]; quinidine 0.0125 μM) | Clint, app Ratio (respective to 0 concentration of Quinidine) ([2]; quinidine 0.025 μM) | t1/2 Ratio (respective to 0 concentration of Quinidine) ([2]; quinidine 0.025 μM) | Clint, app Ratio (respective to 0 concentration of Quinidine) ([2]; quinidine 0.05 μM) | t1/2 Ratio (respective to 0 concentration of Quinidine) ([2]; quinidine 0.05 μM) | further results
1 | Cc1ccc2c(c1)[C@]13CCCC[C@@H]1[C@H](C2)N(C)CC3 [Dimemorfan, (+)-(9α,13α,14α)-3,17-dimethylmorphinan] | 64.9 mL/min/kg | 4.81 min | 50.8 mL/min/kg | 6.34 min | 24.7 mL/min/kg | 12.8 min | 19.3 mL/min/kg | 16.2 min | 12.2 mL/min/kg | 25.5 min | 7.4 mL/min/kg | 43.1 min | 1.0 | 1.0 | 0.78 | 1.3 | 0.38 | 2.7 | 0.30 | 3.4 | fraction of a dose metabolized [1]: Greater than 98%; Clint, app Ratio (respective to 0 concentration of Quinidine) ([2]; quinidine 0.1 μM): 0.19; t1/2 Ratio (respective to 0 concentration of Quinidine) ([2]; quinidine 0.1 μM): 5.3; Clint, app Ratio (respective to 0 concentration of Quinidine) ([2]; quinidine 0.2 μM): 0.11; t1/2 Ratio (respective to 0 concentration of Quinidine) ([2]; quinidine 0.2 μM): 9.0
2 | [2H]C([2H])([2H])c1ccc2c(c1)[C@]13CCCC[C@@H]1[C@H](C2)N(C([2H])([2H])[2H])CC3 [D6-Dimemorfan] | 48.2 mL/min/kg | 6.5 min | 30.9 mL/min/kg | 10.1 min | 23.6 mL/min/kg | 13.2 min | 17.3 mL/min/kg | 18 min | 10 mL/min/kg | 31.1 min | 8.2 mL/min/kg | 37.9 min | 1.0 | 1.0 | 0.64 | 1.6 | 0.49 | 2.0 | 0.36 | 2.8 | % Δ (D6-Dimemorfan/Dimemorfan) of t1/2 ([2]; quinidine 0 μM): 35%; Clint, app Ratio (D6-Dimemorfan/Dimemorfan) ([2]; quinidine 0 μM): 0.74; % Δ (D6-Dimemorfan/Dimemorfan) of t1/2 ([2]; quinidine 0.0125 μM): 59%; Clint, app Ratio (D6-Dimemorfan/Dimemorfan) ([2]; quinidine 0.0125 μM): 0.61; % Δ (D6-Dimemorfan/Dimemorfan) of t1/2 ([2]; quinidine 0.025 μM): 3%; Clint, app Ratio (D6-Dimemorfan/Dimemorfan) ([2]; quinidine 0.025 μM): 0.96; % Δ (D6-Dimemorfan/Dimemorfan) of t1/2 ([2]; quinidine 0.05 μM): 11%; Clint, app Ratio (D6-Dimemorfan/Dimemorfan) ([2]; quinidine 0.05 μM): 0.90; % Δ (D6-Dimemorfan/Dimemorfan) of t1/2 ([2]; quinidine 0.1 μM): 22%; Clint, app Ratio (D6-Dimemorfan/Dimemorfan) ([2]; quinidine 0.1 μM): 0.82; Clint, app Ratio (respective to 0 concentration of Quinidine) ([2]; quinidine 0.1 μM): 0.21; t1/2 Ratio (respective to 0 concentration of Quinidine) ([2]; quinidine 0.1 μM): 4.8; % Δ (D6-Dimemorfan/Dimemorfan) of t1/2 ([2]; quinidine 0.2 μM): −12%; Clint, app Ratio (D6-Dimemorfan/Dimemorfan) ([2]; quinidine 0.2 μM): 1.11; Clint, app Ratio (respective to 0 concentration of Quinidine) ([2]; quinidine 0.2 μM): 0.17; t1/2 Ratio (respective to 0 concentration of Quinidine) ([2]; quinidine 0.2 μM): 5.8
3 | COc1ccc2c(c1)[C@]13CCCC[C@@H]1[C@H](C2)N(C)CC3 [DM, (+)-3-methoxy-17-methyl-(9α,13α,14α)-morphinan] | 15.4 mL/min/kg | 20.5 min | 12.1 mL/min/kg | 25.6 min | 10.6 mL/min/kg | 29.6 min | 9.5 mL/min/kg | 33 min | 7.4 mL/min/kg | 42.1 min | 4.8 mL/min/kg | 64.5 min | 1.0 | 1.0 | 0.79 | 1.2 | 0.69 | 1.4 | 0.62 | 1.6 | Clint, app Ratio (respective to 0 concentration of Quinidine) ([2]; quinidine 0.1 μM): 0.48; t1/2 Ratio (respective to 0 concentration of Quinidine) ([2]; quinidine 0.1 μM): 2.1; Clint, app Ratio (respective to 0 concentration of Quinidine) ([2]; quinidine 0.2 μM): 0.31; t1/2 Ratio (respective to 0 concentration of Quinidine) ([2]; quinidine 0.2 μM): 3.1
